Reference: patent publication US20090220507A1, “INHIBITION OF EXTRACELLULAR SIGNAL-REGULATED KINASE 1/2 AS A TREATMENT FOR CARDIAC HYPERTROPHY AND HEART FAILURE” (priority 2005, published 2009)
“Also recorded” adds a separate entry of the source. * marks the point of attachment. Myristoyl = CCCCCCCCCCCCCC(=O)*

Legend:
[1] = tested on: β1-AR-mediated fetal gene expression in NRVMs; assay: RNase protection assay of isoproterenol-induced fetal gene program mRNA in NRVMs; format: cell-based, rat
Method: (§1) Materials. Isoproterenol (Sigma) was dissolved in sterile H2O containing 1 mmol/L Ascorbic Acid, and the concentrations used are described in the results section.
(§2) Cell Culture. Neonatal rat cardiac ventricular myocytes (NRVMs) were cultured as previously described (Simpson et al., 1982; Simpson and Savion, 1982; Long et al., 1992; Waspe et al., 1990). Briefly, cells were isolated by trypsin digestion from the ventricles of 1-3 day old rats. Isolation procedures were done in a very gentle manner and cells were plated at a concentration of 1.5×10^5 cells per well in 12-well tissue culture plates in medium containing serum. 24 hours later the media was changed to serum free media containing insulin, transferin, bovine serum albumin, vitamin B12 and penicillin. Wells were pre-coated with a 0.1% gelatin solution and dried in a hood under UV lights. In addition, all media solutions were supplemented with Hepes (pH 7.5) to a final concentration of 20 mmol/L in order to buffer the pH of the media.
(§3) RNase Protection Assay. Total RNA was extracted by TRIZol (Invitrogen) and used in RNase protection assays (RPA). RPAs were performed essentially as described (Patten et al., 1996; Kinugawa et al., 2001). Briefly, 5 μg of total RNA was hybridized against probes specific to skeletal α-actin, SRCA2A, α-MyHC, β-MyHC, ANF, BNP and GAPDH. RNase protection experiments were performed using the RPAII kit (Ambion). RPA experiments were performed from mRNA extracted from a minimum of three different experiments.
as §3, with “RNase Protection Assay: Total RNA” for “RNase Protection Assay. Total RNA”, “al., 1996; Kinuguwa et al.,” for “al., 1996; Kinugawa et al.,”, “protection experiments (RPAs) were performed” for “protection experiments were performed”

[2] = tested on: ERK1/2; assay: Western blot of phosphorylated ERK1/2 in isoproterenol-stimulated NRVMs; format: cell-based, rat; conditions: for isoproterenol activation of ERK1/2 (phosphorylation): all time points (5, 30, 60 minutes, 6, 24, 33, 48 hours)
Method: as §1, §2
ERK1/2 Western Blots. Phosphorylated ERK1/2 protein extraction was performed essentially as described in Headley et al. (2004).
ERK1/2 activation is dependent on calcineurin and on CaMKII.

[3] = inhibitor 1 hour after ISO treatment, mRNA extracted 48 hours later, RPA
[4] = inhibitor 1 hour before isoproterenol, RPA, mRNA normalized to GAPDH
[5] = inhibitor alone, without isoproterenol

Compound | isoproterenol-associated down-regulation (repression) of SRCA2a [1, 4] | isoproterenol-associated down-regulation (repression) of α-MyHC [1, 4] | isoproterenol-associated up-regulation (induction) of ANP [1, 4] | isoproterenol-associated up-regulation of BNP [1, 4] | isoproterenol-associated up-regulation of skeletal α-actin [1, 4] | isoproterenol activation of ERK1/2 (phosphorylation) ([2]; inhibitor pre-treatment) | isoproterenol-induced changes in endogenous mRNA fetal gene program induction (all changes in fetal gene expression) [1, 4] | also measured
N#CC(=C(/N)Sc1ccccc1N)/C(C#N)=C(\N)Sc1ccccc1N [U0126] | does not prevent | blocks; also recorded: prevents | blocks | blocks | blocks | completely abrogates | – | ISO-mediated down-regulation of αMyHC [1, 3]: prevents; ISO-mediated up-regulation of the fetal isoforms (fetal gene expression) [1, 3]: prevents; up-regulation (activation) of β-MyHC in response to isoproterenol stimulation [1, 4]: prevents; ISO-mediated up-regulation of the fetal isoforms ([1]; inhibitor 1 hour prior to ISO treatment, mRNA extracted 48 hours later, RPA): prevents
14-22 Amide myristoylated (Myristoyl-GRTGRRNAI-NH2; SMILES CCCCCCCCCCCCCC(=O)NCC(=O)N[C@@H](CCCNC(=N)N)C(=O)N[C@H](C(=O)NCC(=O)N[C@@H](CCCNC(=N)N)C(=O)N[C@@H](CCCNC(=N)N)C(=O)N[C@@H](CC(N)=O)C(=O)N[C@@H](C)C(=O)N[C@H](C(N)=O)[C@@H](C)CC)[C@@H](C)O; UniProt P61925 15-23, looked up, fragment) [PKI14-22] | – | – | – | – | – | did not prevent | – | –
COc1ccc(S(=O)(=O)N(CCO)c2ccccc2CN(C)C/C=C/c2ccc(Cl)cc2)cc1 [KN-93] | not capable of preventing | prevented | prevented | prevented | prevented | – | prevented | ANP mRNA levels [1, 5]: decrease; SRCA2a mRNA levels [1, 5]: decrease; β-MyHC mRNA levels [1, 5]: decrease; activation of ERK1/2 in response to isoproterenol (phosphorylation) ([2]; inhibitor pre-treatment, 33 and 48 hour isoproterenol time points): blocked
NCCOB(c1ccccc1)c1ccccc1 [AFB-30, 2-APB] | – | – | – | – | – | – | completely abrogated | –
CC(C)NCC(O)c1ccc(O)c(O)c1 (centres unmarked) [isoproterenol] | – | – | – | – | – | – | – | ERK phosphorylation as a surrogate marker for activation ([2]; isoproterenol stimulation, 5 minutes, 33 hours and 48 hours): increased
